From paper PMC3042382, “The evolution of farnesoid X, vitamin D, and pregnane X receptors: insights from the green-spotted pufferfish (Tetraodon nigriviridis) and other non-mammalian species” (BMC Biochemistry, 2011)
Like-named read-outs stand apart in the source and are kept apart here.

What was measured:
[1] = target: T1, tnVDR (Tetraodon VDR alpha, GAL4/LBD) (Tetraodon nigroviridis, UniProt A0A0A1CGS5); assay: cell-based; design: GAL4/LBD chimera luciferase transactivation, normalised to beta-galactosidase, efficacy relative to maximal activator; details: HepG2-NTCP; relative to 200 nM 1α,25-(OH)2-vitamin D3; read-out: Efficacy
T1 construct: gene VDRa; cloned from liver RNA
T1 sequence (A0A0A1CGS5 91-420): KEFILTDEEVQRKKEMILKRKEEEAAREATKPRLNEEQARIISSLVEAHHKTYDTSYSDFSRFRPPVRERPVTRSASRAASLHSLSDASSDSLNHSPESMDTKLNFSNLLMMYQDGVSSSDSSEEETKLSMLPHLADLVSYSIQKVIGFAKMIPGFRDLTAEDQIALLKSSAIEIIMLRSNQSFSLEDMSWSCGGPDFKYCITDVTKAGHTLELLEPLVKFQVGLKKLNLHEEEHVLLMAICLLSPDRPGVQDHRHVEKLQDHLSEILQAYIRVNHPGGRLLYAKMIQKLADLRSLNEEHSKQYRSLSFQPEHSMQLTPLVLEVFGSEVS
Description: (§1) The creation of a HepG2 (human liver) cell line stably expressing the human Na^+-taurocholate cotransporter (NTCP; SLC10A1) has been previously reported. HepG2-NTCP cells were grown in modified Eagle's medium-α containing 10% fetal bovine serum and 1% penicillin/streptomycin. The cells were grown at 37°C in 5% CO2. The chicken LMH hepatoma cell line (ATCC, Manassus, VA, USA) was grown in Waymouth's MB 752/1 medium (ATCC) with 10 fetal bovine serum. The Xenopus laevis A6 kidney cell line (ATCC) was grown in 75% NCTC 109 medium, 15% distilled water, and 10% fetal bovine serum at 26°C in 2% CO2. Except as noted above, all media and media supplements for the HepG2 and A6 cell lines were obtained from Invitrogen (Carlsbad, CA, USA). Co-transfections and transactivations assays were performed as previously described. The maximal activators and their concentrations were as follows: chVDR, xlVDR, and tnVDR - 200 nM 1α,25-(OH)2-vitamin D3; tnFXR - 5 μM GW4064; tnPXR - 50 μM 5α-androstan-3α-ol. All comparisons to maximal activators were done within the same microplate. Luciferase data were normalized to the internal β-galactosidase control and represent means ± SD of the assays. The LBD of chicken VDR was cloned from RNA extracted from the LMH cell line. The LBD of Xenopus laevis VDR was cloned from RNA extracted from the A6 cell line. The LBDs of tnFXR, tnVDR, and tnPXR were cloned from total RNA extracted from Tetraodon liver using sequence information from the draft Tetraodon nigriviridis genome. The LBDs of chVDR (amino acid residues 113-451), xlVDR (amino acid residues 91-422), tnFXR (amino acid residues 180-463), tnVDR (amino acid residues 91-426), and tnPXR (amino acid residues 202-483) were inserted into the pM2-GAL4 vector to create GAL4/LBD chimeras.

[2] = target: T2, tnPXR (Tetraodon PXR, GAL4/LBD) (Tetraodon nigroviridis, UniProt H3D8U6); assay: cell-based; design: GAL4/LBD chimera luciferase transactivation, normalised to beta-galactosidase, efficacy relative to maximal activator; details: HepG2-NTCP; relative to 50 uM 5α-androstan-3α-ol; read-out: Efficacy
T2 construct: cloned from liver RNA
T2 sequence (H3D8U6 123-404): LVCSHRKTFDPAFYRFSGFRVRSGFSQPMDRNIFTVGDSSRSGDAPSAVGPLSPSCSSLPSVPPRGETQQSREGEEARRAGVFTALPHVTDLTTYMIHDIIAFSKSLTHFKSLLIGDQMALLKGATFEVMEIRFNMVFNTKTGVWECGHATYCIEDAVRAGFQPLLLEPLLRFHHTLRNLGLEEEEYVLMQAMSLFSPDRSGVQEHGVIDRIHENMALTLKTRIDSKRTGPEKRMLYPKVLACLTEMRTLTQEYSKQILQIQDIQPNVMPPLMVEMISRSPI
Description: as §1

[3] = target: T2, tnPXR (Tetraodon PXR, GAL4/LBD); design: species or system HepG2-NTCP; GAL4/LBD chimera luciferase transactivation, normalised to beta-galactosidase, efficacy relative to maximal activator; details: agonist
Description: as §1

[4] = target: T3, tnPXR (Tetraodon PXR, GAL4/LBD) (Tetraodon nigroviridis, UniProt H3D8U6); assay: GAL4/LBD luciferase transactivation; format: cell-based; details: agonist, HepG2-NTCP cells
T3 construct: cloned from liver RNA

[5] = test system: T4, tnFXR (Tetraodon FXR, GAL4/LBD); assay: GAL4/LBD luciferase transactivation; format: cell-based, Tetraodon nigroviridis; details: agonist, HepG2-NTCP cells
T4 construct: gene NR1H4; cloned from liver RNA

[6] = target: T5, chVDR (chicken VDR, GAL4/LBD) (Gallus gallus, UniProt O42392); assay: cell-based
T5 sequence (O42392 113-451): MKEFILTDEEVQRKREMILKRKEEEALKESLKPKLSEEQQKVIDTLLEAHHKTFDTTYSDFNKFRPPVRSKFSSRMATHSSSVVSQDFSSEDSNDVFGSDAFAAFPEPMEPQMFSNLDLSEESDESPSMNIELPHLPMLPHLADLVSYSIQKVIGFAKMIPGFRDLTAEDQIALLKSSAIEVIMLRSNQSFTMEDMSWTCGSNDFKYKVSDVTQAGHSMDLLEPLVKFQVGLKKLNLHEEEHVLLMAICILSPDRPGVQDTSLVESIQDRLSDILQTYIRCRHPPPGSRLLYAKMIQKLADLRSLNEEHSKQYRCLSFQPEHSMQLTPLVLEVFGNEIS

[7] = reference maximal activator ([…])

SMILES | Emax [2] [%] | EC50 [3] [µM] | other results
C[C@H](CCC(=O)O)[C@H]1CC[C@H]2[C@@H]3CC[C@@H]4CC(=O)CC[C@]4(C)[C@H]3CC[C@]12C [3_Keto_LCA] | 65 | 42.3 | Emax [1]: 17%
C[C@]12CC[C@@H](O)C[C@@H]1CC[C@@H]1[C@@H]2CC[C@]2(C)C=CC[C@@H]12 [5α-Androst-16-en-3α-ol] | 58 | 7.4 | –
C[C@H](CCC(=O)O)[C@H]1CC[C@H]2[C@@H]3CC[C@H]4CCCC[C@]4(C)[C@H]3CC[C@]12C [5α-Cholan-24-oic acid] | – | – | Emax [1]: 3%
C[C@H](CCCC(CO)COS(=O)(=O)O)[C@H]1CC[C@H]2[C@@H]3[C@H](O)C[C@H]4C[C@H](O)CC[C@]4(C)[C@H]3C[C@H](O)[C@]12C (stereo partly drawn) [5α-Cyprinol-27-sulfate] | – | 8.2 | –
C[C@@]12CCC[C@H]1[C@@H]1CC[C@H]3C[C@H](O)CC[C@]3(C)[C@H]1CC2 [5α-androstan-3α-ol] | – | – | EC50 [4, 7]: 6.1 ± 0.7 µM
CC(=O)[C@H]1CC[C@H]2[C@@H]3CC[C@@H]4CC(=O)CC[C@]4(C)[C@H]3CC[C@]12C [5β-Pregnanedione] | 73 | – | –
CC(=O)[C@H]1CC[C@H]2[C@@H]3CC[C@@H]4CC(=O)CC[C@]4(C)[C@H]3CC[C@]12C [5β-pregnane-3,20-dione] | – | – | EC50 [4]: 4 µM
C=C1CC[C@H](O)C/C1=C/C=C1\CCC[C@]2(C)[C@@H]([C@H](C)CCCC(C)(C)O)CC[C@@H]12 [25-Hydroxyvitamin D3] | – | – | Emax [1]: 110%
C[C@H](CCC(=O)O)[C@H]1CC[C@H]2[C@@H]3[C@H](O)C[C@@H]4C[C@H](O)CC[C@]4(C)[C@H]3CC[C@]12C [CDCA, 3α,7α-dihydroxy-5β-cholan-24-oic acid] | 38 | 15.6 | –
C[C@]12CCC(=O)C=C1CC[C@@H]1[C@@H]2C(=O)C[C@@]2(C)[C@H]1CC[C@]2(O)C(=O)CO [Cortisone] | 19 | 12.2 | –
C[C@]12CC[C@H](OS(=O)(=O)O)CC1=CC[C@@H]1[C@@H]2CC[C@]2(C)C(=O)CC[C@@H]12 [DHEA_sulfate] | 70 | 8.5 | –
C[C@H](CCC(=O)O)[C@H]1CC[C@H]2[C@@H]3CC[C@@H]4C[C@H](O)CC[C@]4(C)[C@H]3C[C@H](O)[C@]12C [Deoxycholic acid] | 33 | 9 | –
C[C@]12CC[C@@H]3c4ccc(O)cc4CC[C@H]3[C@@H]1CC[C@@H]2O [Estradiol] | 47 | 9.6 | –
CC(C)c1onc(-c2c(Cl)cccc2Cl)c1COc1ccc(/C=C/c2cccc(C(=O)O)c2)c(Cl)c1 [GW4064] | – | – | EC50 [5, 7]: 2.8 ± 0.8 µM
C[C@H](CCC(=O)O)[C@H]1CC[C@H]2[C@@H]3CC[C@@H]4C[C@@H](O)CC[C@]4(C)[C@H]3CC[C@]12C [Iso-LCA] | – | – | Emax [1]: 4%
CC(=O)O[C@@H]1CC[C@@]2(C)[C@H](CC[C@@H]3[C@@H]2CC[C@]2(C)[C@@H]([C@H](C)CCC(=O)O)CC[C@@H]32)C1 [LCA acetate] | – | – | Emax [1]: 61%
C[C@H](CCC(=O)O)[C@H]1CC[C@H]2[C@@H]3CC[C@@H]4C[C@H](O)CC[C@]4(C)[C@H]3CC[C@]12C [LCA, 3α-hydroxy-5β-cholan-24-oic acid] | 10 | 81 | Emax [1]: 12%; EC50 [6]: 50.3 ± 7.4 µM; EC50 [5]: 20.8 ± 1 µM
CC(=O)[C@H]1CC[C@H]2[C@@H]3CC=C4C[C@@H](O)CC[C@]4(C)[C@H]3CC[C@]12C [Pregnenolone] | 34 | 3.3 | –
CC(=O)[C@H]1CC[C@H]2[C@@H]3CCC4=CC(=O)CC[C@]4(C)[C@H]3CC[C@]12C [Progesterone] | 33 | 8.9 | –
O=S(=O)(c1ccccc1)N(CC(F)(F)F)c1ccc(C(O)(C(F)(F)F)C(F)(F)F)cc1 [T-0901317] | 17 | 7.7 | –
C[C@H](CCC(=O)NCCS(=O)(=O)O)[C@H]1CC[C@H]2[C@@H]3[C@H](O)C[C@@H]4C[C@H](O)CC[C@]4(C)[C@H]3CC[C@]12C [TCDCA, taurochenodeoxycholic acid] | 59 | – | EC50 [4]: 4.8 ± 0.3 µM
C[C@H](CCC(=O)NCCS(=O)(=O)O)[C@H]1CC[C@H]2[C@@H]3CC[C@@H]4C[C@H](O)CC[C@]4(C)[C@H]3CC[C@]12C [Tauro-LCA] | 29 | 19.1 | –
CCCCOC(=O)c1ccc(N)cc1 [n-butyl 4-amino benzoate] | 88 | – | EC50 [4]: 25.6 ± 1.4 µM
